Experimental findings from ChEMBL document CHEMBL1201862, “PubChem BioAssay data set” (2004) are described below.

Activity calls are given as the source filed them.

Test [1] is described as follows: viability loss in A549 lung cells – cell-based, 24 h, CellTiter-Glo luminescence, cherry-picks, cytotoxicity control, dose response (AID 1053115). Type of test: functional. Particulars: A549, 24 h. (Cellular ATP, detected with luciferase, serves as a proxy for viable cell number.)
Test [2] in a line: blockers of CRF-binding protein–CRF-R2 complex – cell-based, uHTS hits, 384-well, dose response (AID 651639). The settings on record: read-out: IC50_Mean. The test is classed as functional, Homo sapiens.
In test [3] the target is NAD-dependent protein deacylase sirtuin-5, mitochondrial (Homo sapiens, UniProt Q9NXA8). Kind of test: sirtuin-5 deacylation blockers, concentration series – biochemical, fluorescence imaging, cherry-pick, set 5, dose response (AID 720591).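 Further: desuccinylation of succinyl peptide AMC substrate read as fluorescence after trypsin release; potency of inhibitors that lower fluorescence and may act on trypsin instead.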
Chain of NAD-dependent protein deacylase sirtuin-5, mitochondrial (Q9NXA8 whole entry): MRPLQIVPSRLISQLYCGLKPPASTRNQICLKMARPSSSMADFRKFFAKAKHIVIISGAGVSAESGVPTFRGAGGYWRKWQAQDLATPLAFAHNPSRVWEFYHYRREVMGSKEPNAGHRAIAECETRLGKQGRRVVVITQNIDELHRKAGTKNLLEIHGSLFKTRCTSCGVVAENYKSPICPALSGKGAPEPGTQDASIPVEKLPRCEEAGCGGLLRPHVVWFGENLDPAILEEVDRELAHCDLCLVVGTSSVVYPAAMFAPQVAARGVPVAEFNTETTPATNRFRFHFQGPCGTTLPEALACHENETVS
Test [4] has as its target T1, Fatty acid synthase (Homo sapiens, UniProt P49327). Kind of test: inhibition of human FAS-TE enzyme activity – biochemical, kinetic fluorescence intensity, dose response (AID 624326).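 Further: rate of fluorescence rise from hydrolysis of a fluorogenic O-methyl fluorescein ester substrate.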 Type of test: functional.
Test [5] has as its target T2, Small ubiquitin-related modifier 1 (Homo sapiens, UniProt P63165). Kind of test: SUMO1 protein-protein binding blockers, potency – biochemical, FRET, dose response (AID 624383). Type of test: functional. Particulars: read-out: IC50_Mean.
Test [6] concerns the target T1, Fatty acid synthase. Kind of test: inhibition of human FAS-TE enzyme activity – biochemical, endpoint fluorescence intensity, uHTS hits, dose response (AID 624327).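 Further: fluorescence from hydrolysis of an O-methyl fluorescein acyl ester substrate by the enzyme.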 Type of test: functional.
The target of test [7] is T3, Corticotropin-releasing factor receptor 2/Corticotropin-releasing factor-binding protein (Homo sapiens, UniProt P24387+Q13324).
T3 sequence (Q13324 whole entry): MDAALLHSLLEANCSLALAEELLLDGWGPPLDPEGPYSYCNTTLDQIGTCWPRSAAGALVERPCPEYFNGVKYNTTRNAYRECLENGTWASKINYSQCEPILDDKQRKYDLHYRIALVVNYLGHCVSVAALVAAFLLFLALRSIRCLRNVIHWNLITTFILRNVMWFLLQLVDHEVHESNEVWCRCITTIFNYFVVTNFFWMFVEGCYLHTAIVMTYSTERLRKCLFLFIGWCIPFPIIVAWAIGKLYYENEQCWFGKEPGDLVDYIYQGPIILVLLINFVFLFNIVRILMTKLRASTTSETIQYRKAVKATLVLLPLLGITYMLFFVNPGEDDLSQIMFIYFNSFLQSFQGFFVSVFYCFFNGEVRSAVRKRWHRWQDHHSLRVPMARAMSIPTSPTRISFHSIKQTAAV
T3 sequence (P24387 whole entry): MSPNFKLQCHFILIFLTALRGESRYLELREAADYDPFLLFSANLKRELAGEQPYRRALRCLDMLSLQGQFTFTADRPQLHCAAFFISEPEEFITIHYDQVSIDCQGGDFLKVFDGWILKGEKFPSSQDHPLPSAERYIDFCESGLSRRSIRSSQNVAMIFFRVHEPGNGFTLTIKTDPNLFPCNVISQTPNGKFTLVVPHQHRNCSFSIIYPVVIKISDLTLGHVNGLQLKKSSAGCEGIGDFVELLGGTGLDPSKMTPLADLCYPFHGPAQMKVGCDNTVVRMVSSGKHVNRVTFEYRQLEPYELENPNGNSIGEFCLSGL
Kind of test: Dose Response confirmation of uHTS hits for small molecule antagonists of the CRF-binding protein and CRF-R2 receptor complex. Type of test: functional. Particulars: read-out: IC50_Mean.

Test [8] deals with T2, Small ubiquitin-related modifier 1. The test is described as follows: SUMO1 protein interaction blockers, potency – biochemical, fluorescence polarization, uHTS hits, dose response (AID 624382). Type of test: functional. Particulars: read-out: IC50_Mean.
Test [9] concerns the target T4, Small ubiquitin-related modifier 2 (Homo sapiens, UniProt P61956). The test is described as follows: SUMO2 binding disruption by SUMO1 hits – biochemical, FRET, human SUMO2, uHTS hits, selectivity assay for SUMO1 interaction inhibitor project, dose response (AID 624384). The test is classed as functional. The settings on record: read-out: IC50_Mean.
Test [10] addresses T3, Corticotropin-releasing factor receptor 2/Corticotropin-releasing factor-binding protein. The test is described as follows: activators of CRF receptor 2 with binding protein – uHTS hits, confirmation (AID 602473). The settings on record: read-out: EC50_Mean. The test is classed as functional.
Test [11] has as its target DNA (cytosine-5)-methyltransferase 1 (Homo sapiens, UniProt P26358). The test is described as follows: inhibition of DNA methylation by DNMT1 – biochemical, fluorescent molecular beacon, confirmation (AID 602386). The test is classed as functional.
Test [12] has as its target T4, Small ubiquitin-related modifier 2. The test is described as follows: disruption of SUMO2 interaction with SIM peptide – biochemical, fluorescence polarization, uHTS hits, selectivity assay for SUMO1 interaction inhibitor project, dose response (AID 624385). Type of test: functional. Particulars: read-out: IC50_Mean.

T2 sequence (P63165 whole entry): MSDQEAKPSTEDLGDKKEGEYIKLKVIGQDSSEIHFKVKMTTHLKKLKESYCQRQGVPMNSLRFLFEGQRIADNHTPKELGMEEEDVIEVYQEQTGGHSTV
T1 sequence (P49327 whole entry): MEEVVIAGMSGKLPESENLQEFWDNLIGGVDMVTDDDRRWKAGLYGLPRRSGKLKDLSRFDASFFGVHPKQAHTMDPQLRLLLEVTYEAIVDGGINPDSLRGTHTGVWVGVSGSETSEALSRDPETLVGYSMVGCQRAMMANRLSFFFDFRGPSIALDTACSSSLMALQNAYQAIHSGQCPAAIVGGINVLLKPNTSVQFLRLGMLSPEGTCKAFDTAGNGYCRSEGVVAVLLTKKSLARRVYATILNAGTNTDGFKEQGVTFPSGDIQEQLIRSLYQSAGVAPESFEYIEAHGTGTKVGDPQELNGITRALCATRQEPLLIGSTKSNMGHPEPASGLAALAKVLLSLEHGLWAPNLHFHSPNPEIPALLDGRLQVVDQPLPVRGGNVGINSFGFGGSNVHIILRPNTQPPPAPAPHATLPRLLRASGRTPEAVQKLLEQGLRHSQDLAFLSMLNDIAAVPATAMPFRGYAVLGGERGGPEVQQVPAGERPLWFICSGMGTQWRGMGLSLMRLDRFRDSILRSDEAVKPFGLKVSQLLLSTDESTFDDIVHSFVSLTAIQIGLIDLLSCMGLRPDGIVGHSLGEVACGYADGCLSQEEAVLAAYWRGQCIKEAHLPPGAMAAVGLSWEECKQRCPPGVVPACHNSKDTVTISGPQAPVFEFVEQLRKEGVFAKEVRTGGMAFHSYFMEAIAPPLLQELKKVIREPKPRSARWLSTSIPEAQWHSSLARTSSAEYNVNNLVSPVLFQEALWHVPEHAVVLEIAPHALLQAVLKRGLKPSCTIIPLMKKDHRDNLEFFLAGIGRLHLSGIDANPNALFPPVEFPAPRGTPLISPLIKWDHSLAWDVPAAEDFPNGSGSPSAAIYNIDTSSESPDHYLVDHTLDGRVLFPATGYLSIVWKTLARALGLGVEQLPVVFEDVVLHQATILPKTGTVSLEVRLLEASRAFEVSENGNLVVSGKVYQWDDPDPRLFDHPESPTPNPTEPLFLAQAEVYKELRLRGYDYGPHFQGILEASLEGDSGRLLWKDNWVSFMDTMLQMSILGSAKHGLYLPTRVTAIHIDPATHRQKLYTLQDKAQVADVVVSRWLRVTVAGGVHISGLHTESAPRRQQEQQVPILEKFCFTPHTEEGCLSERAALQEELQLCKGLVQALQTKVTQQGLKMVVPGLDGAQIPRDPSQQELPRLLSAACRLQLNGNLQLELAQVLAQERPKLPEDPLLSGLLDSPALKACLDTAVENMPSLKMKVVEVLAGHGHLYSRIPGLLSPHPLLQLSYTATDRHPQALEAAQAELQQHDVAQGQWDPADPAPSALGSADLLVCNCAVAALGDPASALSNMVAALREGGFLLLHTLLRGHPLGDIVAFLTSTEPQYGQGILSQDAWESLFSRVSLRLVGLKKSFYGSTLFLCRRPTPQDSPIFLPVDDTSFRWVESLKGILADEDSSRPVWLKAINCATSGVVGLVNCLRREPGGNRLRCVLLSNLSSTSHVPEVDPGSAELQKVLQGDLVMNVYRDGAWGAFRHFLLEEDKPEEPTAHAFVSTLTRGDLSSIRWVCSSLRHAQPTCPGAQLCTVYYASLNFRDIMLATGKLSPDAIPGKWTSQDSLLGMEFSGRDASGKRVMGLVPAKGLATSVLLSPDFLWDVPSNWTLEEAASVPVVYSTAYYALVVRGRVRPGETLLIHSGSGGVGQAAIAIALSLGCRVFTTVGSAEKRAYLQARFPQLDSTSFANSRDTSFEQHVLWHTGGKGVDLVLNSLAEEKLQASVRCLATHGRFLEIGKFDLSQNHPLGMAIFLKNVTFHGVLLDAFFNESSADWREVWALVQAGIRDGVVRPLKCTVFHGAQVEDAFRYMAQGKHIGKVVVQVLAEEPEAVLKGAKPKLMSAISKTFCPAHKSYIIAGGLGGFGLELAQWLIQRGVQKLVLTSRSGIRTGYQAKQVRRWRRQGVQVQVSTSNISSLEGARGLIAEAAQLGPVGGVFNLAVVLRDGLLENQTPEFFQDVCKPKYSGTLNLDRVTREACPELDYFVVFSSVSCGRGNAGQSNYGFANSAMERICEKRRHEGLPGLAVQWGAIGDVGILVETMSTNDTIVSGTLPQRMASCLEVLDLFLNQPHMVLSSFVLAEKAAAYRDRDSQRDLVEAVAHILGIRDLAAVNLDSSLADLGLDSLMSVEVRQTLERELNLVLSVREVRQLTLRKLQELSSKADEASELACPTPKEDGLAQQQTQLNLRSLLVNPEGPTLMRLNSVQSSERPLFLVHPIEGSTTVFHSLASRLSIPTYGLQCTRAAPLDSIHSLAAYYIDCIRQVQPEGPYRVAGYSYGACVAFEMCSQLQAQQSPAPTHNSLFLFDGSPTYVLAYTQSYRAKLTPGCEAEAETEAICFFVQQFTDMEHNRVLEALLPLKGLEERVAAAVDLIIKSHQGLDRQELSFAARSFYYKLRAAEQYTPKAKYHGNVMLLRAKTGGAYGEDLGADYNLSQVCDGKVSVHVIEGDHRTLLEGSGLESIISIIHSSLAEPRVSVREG
T4 sequence (P61956 whole entry): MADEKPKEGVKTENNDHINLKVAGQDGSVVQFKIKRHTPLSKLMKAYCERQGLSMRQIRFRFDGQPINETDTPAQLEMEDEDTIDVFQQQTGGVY
Chain of DNA (cytosine-5)-methyltransferase 1 (P26358 whole entry): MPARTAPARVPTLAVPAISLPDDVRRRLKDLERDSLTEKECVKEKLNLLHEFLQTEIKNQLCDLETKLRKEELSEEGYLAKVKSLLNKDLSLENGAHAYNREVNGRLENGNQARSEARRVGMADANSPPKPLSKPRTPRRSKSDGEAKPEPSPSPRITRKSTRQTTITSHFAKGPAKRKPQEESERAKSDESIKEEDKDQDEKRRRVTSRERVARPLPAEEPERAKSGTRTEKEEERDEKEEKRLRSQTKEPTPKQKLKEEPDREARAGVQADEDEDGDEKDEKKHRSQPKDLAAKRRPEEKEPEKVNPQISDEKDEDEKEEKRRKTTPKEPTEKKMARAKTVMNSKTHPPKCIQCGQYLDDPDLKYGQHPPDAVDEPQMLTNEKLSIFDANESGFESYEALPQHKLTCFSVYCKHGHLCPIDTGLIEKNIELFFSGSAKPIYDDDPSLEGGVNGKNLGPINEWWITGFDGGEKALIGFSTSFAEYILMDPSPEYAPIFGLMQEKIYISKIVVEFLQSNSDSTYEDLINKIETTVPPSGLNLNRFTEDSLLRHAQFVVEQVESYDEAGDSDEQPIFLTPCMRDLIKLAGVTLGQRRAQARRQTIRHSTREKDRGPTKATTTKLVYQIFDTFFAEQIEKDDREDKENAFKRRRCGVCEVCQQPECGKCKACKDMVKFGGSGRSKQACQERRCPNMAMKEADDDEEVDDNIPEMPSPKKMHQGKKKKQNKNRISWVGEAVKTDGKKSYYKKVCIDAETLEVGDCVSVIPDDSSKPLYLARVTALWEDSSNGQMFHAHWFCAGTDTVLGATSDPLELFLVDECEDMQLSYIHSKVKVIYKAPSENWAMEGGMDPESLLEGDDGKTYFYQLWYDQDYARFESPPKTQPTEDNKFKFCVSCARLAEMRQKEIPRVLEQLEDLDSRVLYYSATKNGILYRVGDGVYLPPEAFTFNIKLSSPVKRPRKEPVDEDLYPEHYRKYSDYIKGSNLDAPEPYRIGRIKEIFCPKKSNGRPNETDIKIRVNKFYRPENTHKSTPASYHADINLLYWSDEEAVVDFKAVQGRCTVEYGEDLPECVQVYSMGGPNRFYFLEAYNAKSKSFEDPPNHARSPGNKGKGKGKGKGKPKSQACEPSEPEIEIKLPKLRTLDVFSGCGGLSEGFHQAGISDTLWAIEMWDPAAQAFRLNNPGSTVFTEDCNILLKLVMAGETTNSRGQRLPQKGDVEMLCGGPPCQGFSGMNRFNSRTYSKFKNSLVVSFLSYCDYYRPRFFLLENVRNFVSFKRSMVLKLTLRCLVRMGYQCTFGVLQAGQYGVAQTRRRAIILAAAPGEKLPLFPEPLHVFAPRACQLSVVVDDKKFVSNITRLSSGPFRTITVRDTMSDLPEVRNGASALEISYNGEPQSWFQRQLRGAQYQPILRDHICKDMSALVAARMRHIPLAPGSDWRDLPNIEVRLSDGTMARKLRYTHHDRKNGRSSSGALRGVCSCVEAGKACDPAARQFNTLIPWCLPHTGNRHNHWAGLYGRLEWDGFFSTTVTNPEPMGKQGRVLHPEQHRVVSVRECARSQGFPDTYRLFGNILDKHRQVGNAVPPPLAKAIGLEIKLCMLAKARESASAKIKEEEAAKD

By AC50 is commonly meant the midpoint of the concentration-response curve, whichever way the signal moves. In the case of `CCOC(=O)[C@@H]1[C@@H]2C=C[C@]3(O2)[C@H](C(=O)NCc2ccccc2)N(CCCCCCO)C(=O)[C@@H]13`, the concentration at half-maximal activity (AC50) in [1] was 48.1 µM (active).

In the case of `COc1cc(CCc2ccccc2)c(C(=O)O)c(O)c1C/C=C(/C)CCC=C(C)C`, the IC50 in test [2] is 3.79 µM (active); in [4], 8.42 µM (active); in [5] it was 14.4 µM (active); in test [6] it was 8.25 µM (active); in test [7], < 0.368 µM (active); in test [8], 17.8 µM (active). The IC50 in test [9] was 15.5 µM (active); in test [11] it was 3.5 µM (active); in [12] it was 28.8 µM (inactive). Further, the AC50 in test [3] was 15.7 µM (active). Also, the EC50 in test [10] is > 53 µM (inactive).
